Each structure is given as a SMILES string.

From patent US20240360145A1, “PYRIMIDINE-2,4-DIAMINE DERIVATIVES AS WELL AS PREPARATION METHOD THEREFOR AND USE THEREOF” (LISEN THERAPEUTICS, INC., priority 2022, published 2024) come the findings set out here.

One assay concerns NCI-H1792 cells. Nature of the assay: Cell viability IC50 (MTT), AMG510-resistant NCI-H1792 cells. As to conditions: Homo sapiens, NCI-H1792 cells (KRAS G12C). The class given is cell-based. The procedure:
Non-small cell lung cancer cell lines NCI-H1975, NCI-H1650, and NCI-H1792 were cultured in RPMI-1640 medium containing 10% fetal bovine serum and 1% penicillin-streptomycin. 1% sodium pyruvate was additionally added when culturing NCI-H1975 cells. All the cells were cultured in a constant temperature incubator containing 5% CO2 at 37° C.
(1) The cells were cultured to the logarithmic growth phase. When the confluence reached about 90%, the cells were digested with 0.25% trypsin, and complete medium was added to collect the cells. After centrifugation at room temperature, the supernatant was discarded, and the cell precipitate was resuspended with fresh complete medium. […]
(5) The medium was carefully aspirated off, 100 μl of DMSO was added to dissolve the precipitate formed by the reaction with MTT, shaking and mixing to mix the blue-violet crystals well, and the light absorbance value at 492 nm was read with a microplate reader.
(6) IC50 of the compounds for different cells was calculated based on the light absorption value of each group. Specifically, the absorbance value under treatment with different concentrations of compounds was first subtracted from the absorbance value of the blank well, and then the absorbance value of the 0 μM group was taken as 100% to calculate the cell survival rate after treatment with different concentrations of compounds. […]

For a further assay, the system named is PE052 primary cells. Nature of the assay: Cell viability IC50 (CCK-8), primary cells PE052 from small cell lung cancer pleural effusion. As to conditions: PE052, CCK-8. The assay is classed as cell-based. The procedure: (§1) (1) The pleural effusion was poured into a 15 mL or 50 mL of sterilized centrifuge tube for centrifugation. Centrifugation conditions: 800 to 1000 rpm, 5 min.
(§2) (2) The precipitate was resuspended and washed for 2 to 3 times with PBS.
(§3) (3) The cell precipitate was resuspended with complete culture medium (α-MEM medium containing 10% fetal bovine serum and 2% penicillin-streptomycin), and the flocculent matter in the pleural effusion was removed using a sterilized cell sieve.
(§4) (4) The red blood cells in the pleural effusion were removed with lymphocyte separation fluid, and the tumor cells and lymphocyte components were collected. The number of tumor cells was observed under a microscope, and the cells were inoculated.
(§5) (5) After 24 hours, the supernatant was discarded, and fresh culture medium was added for further culture.
(§6) (6) The cell growth status was observed, and it was determined based on the cell status whether the medium was required to be continuously changed to remove blood cells. When the cells grew to a density of 80% to 90%, the cells were preserved.
(§7) (1) Primary cells from lung cancer pleural effusion within 5 generations were cultured to the logarithmic growth phase. […] After centrifugation at room temperature, the supernatant was discarded, and the cell precipitate was resuspended with fresh complete culture medium. After counting, the cells were placed at room temperature for later use. The cells were inoculated into a 384-well plate at a density of 2000 cells/well with a volume of 40 μl/well. The wells at the outermost circle of the plate were not inoculated with cells, and instead, added with sterile water to reduce evaporation of the culture medium.
(§8) (2) After overnight culture of the cells, the medium was discarded, and a fresh medium containing different concentrations of compounds was added at 200 μl/well. The dilution method of the compound was as follows: first the compound with the highest concentration of 10 μM was prepared, and then the compound was diluted for 3 times in sequence. […] At the same time, a blank control group was set up, in which only an equal volume of culture medium was added without adding cells. Five replicate wells were set up for each group. The cells were placed in the incubator for further culture.
(§9) (3) After 72 hours, 8 μl of CCK-8 solution, which was double-diluted with 10 mM PBS, was added to each well, and the cells were shaken and placed in an incubator at 37° C. for further culture for 2 hours.
(§10) (4) The light absorbance value at 450 nm was read using a microplate reader, and the IC50 was calculated according to the absorbance value. The calculation method was the same as above.
(§11) (1) Sample information: PE039, PE052, and PE062 were all primary cell samples from pleural effusion of patients with small cell lung cancer, and LT015 was a primary cell sample from bronchoscopic biopsy of a patient with small cell lung cancer.
(§12) (2) CCK-8 detection was used to detect the IC50 values of different medicaments (compounds).

For the next assay, the system named is PE062 primary cells. Nature of the assay: Cell viability IC50 (CCK-8), primary cells PE062 from small cell lung cancer pleural effusion. The assay is classed as cell-based. As to conditions: PE062, CCK-8. As to the method: as §1, §2, §3, §4, §5, §6, §7, §8, §9, §10, §11, §12
Another assay has as its system RT-4 (bladder cancer). Nature of the assay: Cell viability IC50 (CellTiter-Glo), RT-4. The assay is classed as cell-based. To be noted: RT-4, 72 hours. As to the method: (§13) The cancer cell lines were cultured to the logarithmic growth phase according to conventional culture methods, and the cells were inoculated into a 384-well plate at a density of 2,000 cells/well in a volume of 40 μl/well. The concentrations of added compounds were: […], 1.67 μM, 0.56 μM, 0.19 μM, 0.062 μM, 0.021 μM, 0.0069 μM, 0.0023 μM, 0.00076 μM, and 0 μM. After 72 hours, cell viability was detected using the CellTiter-Glo™ Detection Kit.
(In general: Cellular ATP, detected with luciferase, serves as a proxy for viable cell number.)

Another assay deals with OV-90 (ovarian cancer). Nature of the assay: Cell viability IC50 (CellTiter-Glo), OV-90. The class given is cell-based. To be noted: Homo sapiens, OV-90, 72 hours. As to the method: as §13
The subject of the next assay is PE043 primary cells. Nature of the assay: Cell viability IC50 (CCK-8), primary cells PE043 from lung adenocarcinoma pleural effusion resistant to EGFR-TKI. As to conditions: read-out: cell viability IC50.

Turning to `CN1CC2CCC(C1)N2Cc1ccc(Nc2ncc(Cl)c(Nc3ccccc3S(=O)(=O)N(C)C)n2)cc1` [Compound 8, 2-((5-chloro-2-((4-((3-methyl-3,8-diazabicyclo[3.2.1]octan-8-yl)methyl)phenyl)amino)pyrimidin-4-yl)amino)-N,N-dimethylbenzenesulfonamide], the IC50 in the assay on NCI-H1792 cells turned out to be 40.6 nM; with PE052 primary cells, 59.9 nM; with PE062 primary cells, 2.7 nM; in the assay with RT-4 (bladder cancer) it was 54 nM; with OV-90 (ovarian cancer) it was 103 nM; with PE043 primary cells it was 34.6 nM.

Broadly, the IC50 is the concentration that gives 50% inhibition.
